How the values were obtained:
[1] = system: α1-adrenoceptor (trigonum vesicae); assay: α1-adrenoceptor-blocking activity in rabbit trigonum vesicae strips (noradrenaline contraction, Schild plot); settings: for Activity ratio: ratio of pA2 (calculated as concentration) with trigonum vesicae to pA2 with thoracic aorta
Procedure: (§1) Male albino rabbits weighing 2.2-2.5 kg were intravenously given pentobarbital (Nembutal® manufactured by Abbott) at a dose of 35 mg/kg body weight and sacrificed by exsanguination. The thoracic aorta and urinary bladder were rapidly excised and placed in modified Krebs solution. After removal of fat and unnecessary connective tissue, helical strips (3×15 mm in size) of the thoracic aorta and longitudinal strips (3×15 mm in size) of trigonum vesicae were prepared and used as specimen. The helical strips were carefully denuded of endothelium attached thereto in order to avoid any effect of the endothelium-derived vascular relaxing factors.
(§2) The preparations were vertically mounted in an organ bath filled with 20 ml of the modified Krebs solution (aerated with a gas mixture of 95 vol % of oxgen and 5 vol % of carbon dioxide and kept at 37° C.). The other end of each strip was attached to a transducer for tension measurement (the model TB-6llT manufactured by Nihon Kohden Kogyo K.K.). Changes in tension were recorded on a pen-writing oscillograph (the model Wi-68lG manufactured by Nihon Kohden Kogyo K.K.). Composition of the modified Krebs solution used herein was as follows: NaCl 115.0, KCl 4.7, MgSO4.7H2 O 1.2, CaCl2.2H2 O 2.5, KH2 PO4 1.2, NaHCO3 25.0 and glucose 10.0 (concentration in mM). The solution contained 10^-6 M propranolol, a […] (manufactured by Sigma). The loading tension was adjusted to attain a weight of 2 g for aorta and a weight of 1 g for trigone. The strips were allowed to equilibrate for at least 60 min. before initiation of the experiment, and during this period the modified Krebs solution in the organ bath was replaced every 20 min.
(§3) First, noradrenaline (manufactured by Sigma, 10^-6 -10^-4 M) was cumulatively added to each specimen to prepare a concentration-response curve to noradrenaline (to determine the 50% effective concentration ED50). […] The results were analyzed by Schild plotting to determine pA2 ([…] of concentration of the blocking agent necessary for parallel shift of the 50% contraction caused by noradrenaline to a concentration two fold as high).

[2] = system: α1-adrenoceptor (thoracic aorta); assay: α1-adrenoceptor-blocking activity in rabbit thoracic aorta strips (noradrenaline contraction, Schild plot); settings: rabbit thoracic aorta helical strips, endothelium denuded; antagonism of noradrenaline contraction; mean (± standard deviation)
Procedure: as §1, §2, §3

[3] = target: T1, α1-adrenoceptor (trigonum vesicae) (Oryctolagus cuniculus, UniProt O02824); assay: α1-adrenoceptor-blocking activity in rabbit trigonum vesicae strips (noradrenaline contraction, Schild plot); settings: rabbit trigonum vesicae longitudinal strips; antagonism of noradrenaline contraction; mean (± standard deviation); read-out: pA2, trigonum vesicae (converted)
T1 construct: longitudinal strips (3×15 mm in size) of trigonum vesicae; from tissue; host or cells: rabbit urinary bladder, longitudinal strips of trigonum vesicae
T1 sequence (O02824 1-466): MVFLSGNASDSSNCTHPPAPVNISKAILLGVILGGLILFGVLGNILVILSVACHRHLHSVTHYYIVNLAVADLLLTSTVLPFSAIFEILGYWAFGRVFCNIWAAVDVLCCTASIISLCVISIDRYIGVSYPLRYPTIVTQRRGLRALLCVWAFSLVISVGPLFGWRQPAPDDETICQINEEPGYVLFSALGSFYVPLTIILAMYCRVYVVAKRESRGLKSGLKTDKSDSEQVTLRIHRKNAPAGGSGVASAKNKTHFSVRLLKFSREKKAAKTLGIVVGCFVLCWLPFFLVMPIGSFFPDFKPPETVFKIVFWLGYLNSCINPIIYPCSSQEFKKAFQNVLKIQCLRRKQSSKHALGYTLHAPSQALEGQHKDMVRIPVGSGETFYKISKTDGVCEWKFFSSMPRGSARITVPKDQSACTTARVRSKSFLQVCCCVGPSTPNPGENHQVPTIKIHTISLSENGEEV
Procedure: as §1, §2, §3

| Kb [3] [nM] | Compound | pA2 comparison trigonum vesicae vs thoracic aorta (in words) [1] | pA2, thoracic aorta [2] | Activity ratio [1] |
| --- | --- | --- | --- | --- |
| – | COc1cc2nc(N3CCN(C(=O)c4ccco4)CC3)nc(N)c2cc1OC [Prazosin, reference compound] | larger pA2 in the thoracic aorta than in the trigonum vesicae | 8.55 | – |
| 5.5 | CCOC(=O)c1c(C)nc(NCCN2CCN(c3ccccc3OC)CC2)nc1C [Compound 7, 2-[2-(4-(2-methoxyphenyl)-l-piperazinyl)ethyl]amino-5-ethoxycarbonyl-4,6-dimethylpyrimidine] | – | 7.92 | 2.19 |
| 5.01 | CCOC(=O)c1c(C)nc(NCCCCN2CCN(c3ccccc3OC)CC2)nc1C [Compound 2, 2-[4-(4-(2-methoxyphenyl)-l-piperazinyl)butyl]amino-5-ethoxycarbonyl-4,6-dimethylpyrimidine] | – | 7.47 | 6.76 |
| 7.08 | COc1ccccc1N1CCN(CCNc2nc(C)cc(C)n2)CC1 [Compound 3, 2-[2-(4-(2-methoxyphenyl)-l-piperazinyl)ethyl]amino-4,6-dimethylpyrimidine] | – | 7.67 | 3.02 |
| 8.51 | COc1ccccc1N1CCN(CCNc2nc(C)c(C(C)=O)c(C)n2)CC1 [Compound 1, 2-[2-(4-(2-methoxyphenyl)-l-piperazinyl)ethyl]amino-5-acetyl-4,6-dimethylpyrimidine] | – | 7.35 | 5.25 |
| 7.94 | COc1ccccc1N1CCN(CCNc2ncccn2)CC1 [Compound 6, 2-[2-(4-(2-methoxyphenyl)-l-piperazinyl)ethyl]amino-pyrimidine] | – | 7.74 | 2.29 |
| 6.17 | COc1ccnc(NCCCCN2CCN(c3ccccc3OC)CC2)n1 [Compound 9, 2-[4-(4-(2-methoxyphenyl)-l-piperazinyl)butyl]amino-4-methoxypyrimidine] | – | 7.96 | 1.78 |
| 5.25 | COc1ccccc1N1CCN(CCNc2nccc(Cl)n2)CC1 [Compound 5, 2-[2-(4-(2-methoxyphenyl)-l-piperazinyl)ethyl]amino-4-chloropyrimidine] | – | 7.83 | 2.82 |
| 5.25 | CCOC(=O)c1c(C)nc(NCCCN2CCN(c3ccccc3OC)CC2)nc1C [Compound 4, 2-[3-(4-(2-methoxyphenyl)-l-piperazinyl)propyl]amino-5-ethoxycarbonyl-4,6-dimethylpyrimidine] | – | 7.65 | 4.27 |
| 6.46 | COc1ccnc(NCCN2CCN(c3ccccc3OC)CC2)n1 [Compound 8, 2-[2-(4-(2-methoxyphenyl)-l-piperazinyl)ethyl]amino-4-methoxypyrimidine] | – | 7.92 | 1.86 |

From patent US5075308A, “Method for treating urinary obstruction” (Hitachi Chemical Co., Ltd., priority 1989, dated 1991)
